Measured values published in PubChem BioAssay (NCI).
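Interpolation was linear, between the two tested concentrations surrounding the appropriate level; five concentrations were tested over 48 hours in 96-well plates. TGI denotes the concentration required for complete inhibition of growth.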

Tests used:
Experiment in all cases: DTP human tumour cell line panel, 48 h
IGROV1 ovarian = system: IGROV1 ovarian
CAKI-1 renal = system: CAKI-1 renal
SF-268 CNS = system: SF-268 CNS
SNB-19 CNS = system: SNB-19 CNS
EKVX NSCLC = system: EKVX NSCLC
MCF7 breast = system: MCF7 breast
TK-10 renal = system: TK-10 renal
K-562 leukemia = system: K-562 leukemia
HCC-2998 colon = system: HCC-2998 colon
CCRF-CEM leukemia = system: CCRF-CEM leukemia
NCI-H226 lung = system: NCI-H226 lung
NCI-H522 lung = system: NCI-H522 lung
SK-MEL-28 melanoma = system: SK-MEL-28 melanoma
786-0 renal = system: 786-0 renal
NCI-H23 lung = system: NCI-H23 lung
SR leukemia = system: SR leukemia
PC-3 prostate = system: PC-3 prostate
UACC-257 melanoma = system: UACC-257 melanoma
COLO 205 colon = system: COLO 205 colon
HCT-15 colon = system: HCT-15 colon
RPMI-8226 leukemia = system: RPMI-8226 leukemia
NCI-H460 lung = system: NCI-H460 lung
SK-MEL-2 melanoma = system: SK-MEL-2 melanoma
T-47D breast = system: T-47D breast
KM12 colon = system: KM12 colon
HOP-92 NSCLC = system: HOP-92 NSCLC
OVCAR-8 ovarian = system: OVCAR-8 ovarian
OVCAR-4 ovarian = system: OVCAR-4 ovarian
HT29 colon = system: HT29 colon
UACC-62 melanoma = system: UACC-62 melanoma
U251 CNS = system: U251 CNS
HCT-116 colon = system: HCT-116 colon
A549 NSCLC = system: A549 NSCLC
HOP-62 NSCLC = system: HOP-62 NSCLC
M14 melanoma = system: M14 melanoma
DU-145 prostate = system: DU-145 prostate
MDA-MB-231 breast = system: MDA-MB-231 breast
MDA-MB-435 = system: MDA-MB-435
NCI/ADR-RES ovarian = system: NCI/ADR-RES ovarian
A498 renal = system: A498 renal
OVCAR-5 ovarian = system: OVCAR-5 ovarian
SF-295 CNS = system: SF-295 CNS
ACHN renal = system: ACHN renal
SNB-75 CNS = system: SNB-75 CNS
SK-MEL-5 melanoma = system: SK-MEL-5 melanoma
OVCAR-3 ovarian = system: OVCAR-3 ovarian
MDA-N = system: MDA-N
SK-OV-3 ovarian = system: SK-OV-3 ovarian
SN12C renal = system: SN12C renal
MOLT-4 leukemia = system: MOLT-4 leukemia
LOX IMVI melanoma = system: LOX IMVI melanoma
HL-60(TB) leukemia = system: HL-60(TB) leukemia
SW-620 colon = system: SW-620 colon
UO-31 renal = system: UO-31 renal
BT-549 breast = system: BT-549 breast
RXF 393 renal = system: RXF 393 renal
SF-539 CNS = system: SF-539 CNS
MALME-3M melanoma = system: MALME-3M melanoma

C[C@@H](NC(=O)OC1C=CC2(CC1)C(=O)N(C)c1ccccc12)c1cccc2ccccc12 (stereo partly specified)
TGI (IGROV1 ovarian): > 25 µM
TGI (CAKI-1 renal): > 25 µM
TGI (SF-268 CNS): > 25 µM
TGI (SNB-19 CNS): > 25 µM
TGI (EKVX NSCLC): > 25 µM
TGI (MCF7 breast): > 25 µM
TGI (TK-10 renal): > 25 µM
TGI (K-562 leukemia): > 25 µM
TGI (HCC-2998 colon): > 25 µM
TGI (CCRF-CEM leukemia): > 25 µM
TGI (NCI-H226 lung): > 25 µM
TGI (NCI-H522 lung): > 25 µM
TGI (SK-MEL-28 melanoma): > 25 µM
TGI (786-0 renal): > 25 µM
TGI (NCI-H23 lung): > 25 µM
TGI (SR leukemia): > 25 µM
TGI (PC-3 prostate): > 25 µM
TGI (UACC-257 melanoma): > 25 µM
TGI (COLO 205 colon): > 25 µM
TGI (HCT-15 colon): > 25 µM
TGI (RPMI-8226 leukemia): > 25 µM
TGI (NCI-H460 lung): > 25 µM
TGI (SK-MEL-2 melanoma): > 25 µM
TGI (T-47D breast): > 25 µM
TGI (KM12 colon): > 25 µM
TGI (HOP-92 NSCLC): > 25 µM
TGI (OVCAR-8 ovarian): > 25 µM
TGI (OVCAR-4 ovarian): > 25 µM
TGI (HT29 colon): > 25 µM
TGI (UACC-62 melanoma): > 25 µM
TGI (U251 CNS): > 25 µM
TGI (HCT-116 colon): > 25 µM
TGI (A549 NSCLC): > 25 µM
TGI (HOP-62 NSCLC): > 25 µM
TGI (M14 melanoma): > 25 µM
TGI (DU-145 prostate): > 25 µM
TGI (MDA-MB-231 breast): > 25 µM
TGI (MDA-MB-435): > 25 µM
TGI (NCI/ADR-RES ovarian): > 25 µM
TGI (A498 renal): > 25 µM
TGI (OVCAR-5 ovarian): > 25 µM
TGI (SF-295 CNS): > 25 µM
TGI (ACHN renal): > 25 µM
TGI (SNB-75 CNS): > 25 µM
TGI (SK-MEL-5 melanoma): > 25 µM
TGI (OVCAR-3 ovarian): > 25 µM
TGI (MDA-N): > 25 µM
TGI (SK-OV-3 ovarian): > 25 µM
TGI (SN12C renal): > 25 µM
TGI (MOLT-4 leukemia): > 25 µM
TGI (LOX IMVI melanoma): > 25 µM
TGI (HL-60(TB) leukemia): 14.7 µM
TGI (SW-620 colon): > 25 µM
TGI (UO-31 renal): > 25 µM

CC1(C)CC2C=C(C=O)C3(C=O)CC3(C)C2C1 (stereo unspecified)
TGI (IGROV1 ovarian): 4.68 µM
TGI (BT-549 breast): 3.37 µM
TGI (CAKI-1 renal): 4.26 µM
TGI (SF-268 CNS): 6.02 µM
TGI (SNB-19 CNS): 25.6 µM
TGI (EKVX NSCLC): 7.5 µM
TGI (MCF7 breast): 5.27 µM
TGI (TK-10 renal): 5.62 µM
TGI (RXF 393 renal): 3.41 µM
TGI (HCC-2998 colon): 18.2 µM
TGI (CCRF-CEM leukemia): 1.15 µM
TGI (NCI-H226 lung): 9.18 µM
TGI (NCI-H522 lung): 2.51 µM
TGI (SF-539 CNS): 3.51 µM
TGI (SK-MEL-28 melanoma): 4.19 µM
TGI (786-0 renal): 3.13 µM
TGI (NCI-H23 lung): 3.99 µM
TGI (SR leukemia): 2.45 µM
TGI (PC-3 prostate): 4.33 µM
TGI (UACC-257 melanoma): 7.11 µM
TGI (COLO 205 colon): 4.25 µM
TGI (HCT-15 colon): 3.94 µM
TGI (RPMI-8226 leukemia): 3.95 µM
TGI (NCI-H460 lung): 10.6 µM
TGI (SK-MEL-2 melanoma): 4.45 µM
TGI (T-47D breast): 9.02 µM
TGI (KM12 colon): 13.5 µM
TGI (HOP-92 NSCLC): 3.97 µM
TGI (OVCAR-8 ovarian): 6.1 µM
TGI (OVCAR-4 ovarian): 3.22 µM
TGI (HT29 colon): 4.54 µM
TGI (UACC-62 melanoma): 17.1 µM
TGI (U251 CNS): 6.45 µM
TGI (HCT-116 colon): 2.21 µM
TGI (A549 NSCLC): 27.2 µM
TGI (HOP-62 NSCLC): 8.86 µM
TGI (M14 melanoma): 5.24 µM
TGI (DU-145 prostate): 17.8 µM
TGI (MDA-MB-231 breast): 3.87 µM
TGI (MDA-MB-435): 3.46 µM
TGI (NCI/ADR-RES ovarian): 5.21 µM
TGI (OVCAR-5 ovarian): 4.14 µM
TGI (SF-295 CNS): 18.8 µM
TGI (ACHN renal): 2.83 µM
TGI (SNB-75 CNS): 7.56 µM
TGI (SK-MEL-5 melanoma): 3.51 µM
TGI (OVCAR-3 ovarian): 2.27 µM
TGI (MDA-N): 9.36 µM
TGI (SK-OV-3 ovarian): 16.2 µM
TGI (SN12C renal): 8.23 µM
TGI (MOLT-4 leukemia): 1.15 µM
TGI (LOX IMVI melanoma): 2.81 µM
TGI (HL-60(TB) leukemia): > 100 µM
TGI (SW-620 colon): 2.4 µM
TGI (UO-31 renal): 3.29 µM

O=C(Nc1nc2ccc([N+](=O)[O-])cc2[n+]([O-])n1)C(F)(F)F
TGI (IGROV1 ovarian): 44.5 µM
TGI (BT-549 breast): > 100 µM
TGI (CAKI-1 renal): > 100 µM
TGI (SF-268 CNS): > 100 µM
TGI (SNB-19 CNS): > 100 µM
TGI (MCF7 breast): 52.4 µM
TGI (TK-10 renal): > 100 µM
TGI (K-562 leukemia): 79.3 µM
TGI (RXF 393 renal): > 100 µM
TGI (HCC-2998 colon): > 100 µM
TGI (CCRF-CEM leukemia): > 100 µM
TGI (NCI-H226 lung): > 100 µM
TGI (NCI-H522 lung): > 100 µM
TGI (SF-539 CNS): > 100 µM
TGI (SK-MEL-28 melanoma): > 100 µM
TGI (786-0 renal): > 100 µM
TGI (NCI-H23 lung): 80.3 µM
TGI (SR leukemia): > 100 µM
TGI (PC-3 prostate): > 100 µM
TGI (UACC-257 melanoma): 37.9 µM
TGI (COLO 205 colon): > 100 µM
TGI (HCT-15 colon): 98.8 µM
TGI (RPMI-8226 leukemia): 41.4 µM
TGI (NCI-H460 lung): > 100 µM
TGI (SK-MEL-2 melanoma): 65.2 µM
TGI (T-47D breast): > 100 µM
TGI (KM12 colon): > 100 µM
TGI (HOP-92 NSCLC): > 100 µM
TGI (OVCAR-8 ovarian): > 100 µM
TGI (OVCAR-4 ovarian): > 100 µM
TGI (HT29 colon): > 100 µM
TGI (UACC-62 melanoma): 53.1 µM
TGI (U251 CNS): > 100 µM
TGI (HCT-116 colon): 60.1 µM
TGI (A549 NSCLC): 83.8 µM
TGI (M14 melanoma): > 100 µM
TGI (DU-145 prostate): > 100 µM
TGI (MDA-MB-231 breast): > 100 µM
TGI (MDA-MB-435): 32 µM
TGI (NCI/ADR-RES ovarian): > 100 µM
TGI (A498 renal): 65.5 µM
TGI (OVCAR-5 ovarian): > 100 µM
TGI (SF-295 CNS): > 100 µM
TGI (ACHN renal): 90.8 µM
TGI (SNB-75 CNS): > 100 µM
TGI (SK-MEL-5 melanoma): 25.3 µM
TGI (MDA-N): 34 µM
TGI (SN12C renal): > 100 µM
TGI (MALME-3M melanoma): 20.4 µM
TGI (MOLT-4 leukemia): 81.6 µM
TGI (HL-60(TB) leukemia): 34.9 µM
TGI (SW-620 colon): > 100 µM
TGI (UO-31 renal): > 100 µM

CC(C)[Si](OC1=C(C(=O)N(C)c2ccccc2Cl)CCC1)(C(C)C)C(C)C
TGI (IGROV1 ovarian): 33 µM
TGI (BT-549 breast): 29.8 µM
TGI (CAKI-1 renal): 36.5 µM
TGI (SF-268 CNS): 33.4 µM
TGI (SNB-19 CNS): 30 µM
TGI (EKVX NSCLC): 31.1 µM
TGI (TK-10 renal): 39.1 µM
TGI (RXF 393 renal): 35.4 µM
TGI (NCI-H226 lung): 40.3 µM
TGI (NCI-H522 lung): 28.6 µM
TGI (SF-539 CNS): 39.5 µM
TGI (SK-MEL-28 melanoma): 39.7 µM
TGI (786-0 renal): 48.9 µM
TGI (NCI-H23 lung): 29.8 µM
TGI (UACC-257 melanoma): 43.4 µM
TGI (COLO 205 colon): 34.3 µM
TGI (HCT-15 colon): 30.6 µM
TGI (RPMI-8226 leukemia): 49.6 µM
TGI (NCI-H460 lung): 62.1 µM
TGI (T-47D breast): 47.1 µM
TGI (KM12 colon): 50.2 µM
TGI (HOP-92 NSCLC): 32.7 µM
TGI (OVCAR-8 ovarian): 31 µM
TGI (OVCAR-4 ovarian): 38.1 µM
TGI (HT29 colon): 29 µM
TGI (U251 CNS): 31.1 µM
TGI (HCT-116 colon): 37 µM
TGI (A549 NSCLC): 32.1 µM
TGI (HOP-62 NSCLC): 32.3 µM
TGI (M14 melanoma): 35.7 µM
TGI (DU-145 prostate): 44.3 µM
TGI (MDA-MB-231 breast): 30.9 µM
TGI (MDA-MB-435): 42.7 µM
TGI (NCI/ADR-RES ovarian): 30.4 µM
TGI (A498 renal): 30.7 µM
TGI (OVCAR-5 ovarian): 21.6 µM
TGI (SF-295 CNS): 27.6 µM
TGI (ACHN renal): 36.3 µM
TGI (SNB-75 CNS): 29.1 µM
TGI (SK-MEL-5 melanoma): 41.2 µM
TGI (OVCAR-3 ovarian): 31.2 µM
TGI (MDA-N): 38.8 µM
TGI (SK-OV-3 ovarian): 32.8 µM
TGI (SN12C renal): 31.6 µM
TGI (MALME-3M melanoma): 34.6 µM
TGI (MOLT-4 leukemia): > 100 µM
TGI (LOX IMVI melanoma): 33.7 µM
TGI (SW-620 colon): 46.9 µM
TGI (UO-31 renal): 29.4 µM
